# According to ChEMBL document CHEMBL5331098, “Nanomolar β-glucosidase and β-galactosidase inhibition by enantiomeric α-1-C-alkyl-1,4-dideoxy-1,4-imino-arabinitol derivatives” (Eur J Med Chem, 2023):
# pIC50: −log10 of the molar value.
# Assays:
# Alpha-glucosidase = Alpha-glucosidase (Saccharomyces cerevisiae S288c, UniProt P53341+P38158+P07265); experiment: Inhibition of yeast alpha-glucosidase assessed as reduction of p-nitrophenol release using p-nitrophenyl glycoside as substrate by spectrophotometric analysis; type: protein assay
# [1] = Inhibition of bovine liver beta-glucosidase assessed as reduction of p-nitrophenol release using p-nitrophenyl glycoside as substrate by spectrophotometric analysis; set-up: species or system Bos taurus
# Rattus norvegicus = species on record: Rattus norvegicus; experiment: Inhibition of rat intestinal maltase assessed as D-glucose release using maltose as substrate at pH 6.8 at 1000 uM by colorimetric method relative to control
# Bos taurus [2] = species on record: Bos taurus; experiment: Inhibition of bovine liver beta-glucuronidase assessed as reduction of p-nitrophenol release using p-nitrophenyl-glycoside as substrate at 1000 uM by spectrophotometric analysis relative to control
# Beta-glucuronidase = Beta-glucuronidase (Escherichia coli (strain K12), UniProt P05804); experiment: Inhibition of Escherichia coli beta-glucuronidase assessed as reduction of p-nitrophenol release using p-nitrophenyl-glycoside as substrate by spectrophotometric analysis
# [3] = Inhibition of almond beta-glucosidase assessed as reduction of p-nitrophenol release using p-nitrophenyl glycoside as substrate by spectrophotometric analysis; set-up: species or system Prunus dulcis
# Oryza sativa = experiment: Inhibition of rice alpha-glucosidase assessed as reduction of p-nitrophenol release using p-nitrophenyl glycoside as substrate at 1000 uM by spectrophotometric analysis relative to control
# [4] = Inhibition of snail beta-mannosidase assessed as reduction of p-nitrophenol release using p-nitrophenyl glycoside as substrate by spectrophotometric analysis; set-up: species or system Helix pomatia
# [5] = Inhibition of Aspergillus niger amyloglucosidase assessed as reduction of p-nitrophenol release using p-nitrophenyl-glycoside as substrate by spectrophotometric analysis
# Sus scrofa = species on record: Sus scrofa; experiment: Inhibition of porcine kidney alpha/alpha-trehalase assessed as reduction of p-nitrophenol release using p-nitrophenyl glycoside as substrate at 1000 uM by spectrophotometric analysis relative to control
# Penicillium decumbens = experiment: Inhibition of Penicillium decumbens alpha-L-rhamnosidase assessed as reduction of p-nitrophenol release using p-nitrophenyl-glycoside as substrate at 1000 uM by spectrophotometric analysis relative to control
# [6] = molecular target: Alpha-galactosidase (Coffea arabica) (UniProt Q42656); experiment: Inhibition of coffee beans alpha-galactosidase assessed as reduction of p-nitrophenol release using p-nitrophenyl glycoside as substrate at 1000 uM by spectrophotometric analysis relative to control
# [7] = Inhibition of bovine liver beta-galactosidase assessed as reduction of p-nitrophenol release using p-nitrophenyl glycoside as substrate by spectrophotometric analysis; set-up: species or system Bos taurus
# [8] = Inhibition of human lysosomal beta-glucosidase assessed as reduction of p-nitrophenol release using p-nitrophenyl glycoside as substrate by spectrophotometric analysis
# [9] = molecular target: T1, Alpha-mannosidase (Canavalia ensiformis) (UniProt C0HJB3); experiment: Inhibition of jack bean alpha-mannosidase assessed as reduction of p-nitrophenol release using p-nitrophenyl glycoside as substrate at 1000 uM by spectrophotometric analysis relative to control
# T1 sequence (whole entry): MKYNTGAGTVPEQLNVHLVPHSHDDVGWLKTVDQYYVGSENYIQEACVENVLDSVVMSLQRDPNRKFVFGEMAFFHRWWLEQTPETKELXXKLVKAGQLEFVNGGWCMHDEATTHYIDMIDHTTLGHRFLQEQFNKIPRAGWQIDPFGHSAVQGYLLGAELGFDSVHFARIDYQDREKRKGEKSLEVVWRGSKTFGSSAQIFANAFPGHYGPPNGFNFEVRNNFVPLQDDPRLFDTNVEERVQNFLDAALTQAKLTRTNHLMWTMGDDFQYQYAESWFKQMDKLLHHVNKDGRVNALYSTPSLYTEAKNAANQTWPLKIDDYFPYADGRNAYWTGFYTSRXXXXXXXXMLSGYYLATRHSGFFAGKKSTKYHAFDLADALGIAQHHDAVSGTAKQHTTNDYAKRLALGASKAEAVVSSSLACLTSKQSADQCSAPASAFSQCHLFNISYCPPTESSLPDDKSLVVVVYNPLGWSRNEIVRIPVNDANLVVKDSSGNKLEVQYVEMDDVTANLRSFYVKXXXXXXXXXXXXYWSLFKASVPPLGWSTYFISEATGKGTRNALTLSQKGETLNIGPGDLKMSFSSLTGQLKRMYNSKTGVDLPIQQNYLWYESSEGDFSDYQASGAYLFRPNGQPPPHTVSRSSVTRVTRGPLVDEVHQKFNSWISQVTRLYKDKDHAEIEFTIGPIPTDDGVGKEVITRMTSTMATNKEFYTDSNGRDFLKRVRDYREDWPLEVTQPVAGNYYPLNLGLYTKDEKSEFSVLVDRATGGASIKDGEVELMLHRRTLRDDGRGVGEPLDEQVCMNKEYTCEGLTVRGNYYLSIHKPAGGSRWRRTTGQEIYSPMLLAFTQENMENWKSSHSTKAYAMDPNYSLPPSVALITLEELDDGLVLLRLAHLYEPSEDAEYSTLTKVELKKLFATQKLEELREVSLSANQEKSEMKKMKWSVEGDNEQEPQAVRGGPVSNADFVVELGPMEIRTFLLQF
# [10] = Inhibition of rat intestinal maltase assessed as D-glucose release using maltose as substrate at pH 6.8 by colorimetric method
# [11] = Inhibition of rice alpha-glucosidase assessed as reduction of p-nitrophenol release using p-nitrophenyl glycoside as substrate by spectrophotometric analysis; set-up: species or system Oryza sativa
# [12] = molecular target: T2, Tissue alpha-L-fucosidase (Bos taurus) (UniProt Q2KIM0); experiment: Inhibition of bovine kidney alpha-L-fucosidase assessed as reduction of p-nitrophenol release using p-nitrophenyl glycoside as substrate at 1000 uM by spectrophotometric analysis relative to control
# T2 sequence (whole entry): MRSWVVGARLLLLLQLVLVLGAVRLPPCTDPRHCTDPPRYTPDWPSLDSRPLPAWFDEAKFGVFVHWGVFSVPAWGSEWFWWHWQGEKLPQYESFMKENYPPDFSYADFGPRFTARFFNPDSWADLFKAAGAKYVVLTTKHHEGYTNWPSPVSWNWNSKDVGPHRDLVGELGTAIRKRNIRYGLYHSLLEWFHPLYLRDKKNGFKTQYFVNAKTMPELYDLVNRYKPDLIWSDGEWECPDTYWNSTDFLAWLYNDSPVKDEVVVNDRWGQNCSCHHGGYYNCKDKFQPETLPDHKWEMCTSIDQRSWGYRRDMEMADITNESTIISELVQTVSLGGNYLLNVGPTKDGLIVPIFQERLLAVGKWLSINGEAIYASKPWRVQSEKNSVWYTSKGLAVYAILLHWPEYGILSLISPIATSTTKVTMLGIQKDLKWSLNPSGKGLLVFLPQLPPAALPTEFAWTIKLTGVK
# Prunus dulcis = experiment: Inhibition of almond beta-glucosidase assessed as reduction of p-nitrophenol release using p-nitrophenyl glycoside as substrate at 1000 uM by spectrophotometric analysis relative to control
# Aspergillus niger = experiment: Inhibition of Aspergillus niger amyloglucosidase assessed as reduction of p-nitrophenol release using p-nitrophenyl-glycoside as substrate at 1000 uM by spectrophotometric analysis relative to control
# [13] = molecular target: Alpha-glucosidase (Saccharomyces cerevisiae S288c) (UniProt P53341+P38158+P07265); experiment: Inhibition of yeast alpha-glucosidase assessed as reduction of p-nitrophenol release using p-nitrophenyl glycoside as substrate at 1000 uM by spectrophotometric analysis relative to control; type: protein assay
# Bos taurus [14] = species on record: Bos taurus; experiment: Inhibition of bovine liver beta-glucosidase assessed as reduction of p-nitrophenol release using p-nitrophenyl glycoside as substrate at 1000 uM by spectrophotometric analysis relative to control
# [15] = molecular target: Beta-glucuronidase (Escherichia coli (strain K12)) (UniProt P05804); experiment: Inhibition of Escherichia coli beta-glucuronidase assessed as reduction of p-nitrophenol release using p-nitrophenyl-glycoside as substrate at 1000 uM by spectrophotometric analysis relative to control
# Helix pomatia = experiment: Inhibition of snail beta-mannosidase assessed as reduction of p-nitrophenol release using p-nitrophenyl glycoside as substrate at 1000 uM by spectrophotometric analysis relative to control
# Bos taurus [16] = species on record: Bos taurus; experiment: Inhibition of bovine liver beta-galactosidase assessed as reduction of p-nitrophenol release using p-nitrophenyl glycoside as substrate at 1000 uM by spectrophotometric analysis relative to control
# [17] = Inhibition of Penicillium decumbens alpha-L-rhamnosidase assessed as reduction of p-nitrophenol release using p-nitrophenyl-glycoside as substrate by spectrophotometric analysis
# Alpha-galactosidase = Alpha-galactosidase (Coffea arabica, UniProt Q42656); experiment: Inhibition of coffee beans alpha-galactosidase assessed as reduction of p-nitrophenol release using p-nitrophenyl glycoside as substrate by spectrophotometric analysis
# Alpha-mannosidase = molecular target: T3, Alpha-mannosidase (Canavalia ensiformis, UniProt C0HJB3); experiment: Inhibition of jack bean alpha-mannosidase assessed as reduction of p-nitrophenol release using p-nitrophenyl glycoside as substrate by spectrophotometric analysis
# T3 sequence (C0HJB3 whole entry): T1 sequence (whole entry)
# Alpha-galactosidase (Coffea arabica), sequence (Q42656 16-378 limits assumed): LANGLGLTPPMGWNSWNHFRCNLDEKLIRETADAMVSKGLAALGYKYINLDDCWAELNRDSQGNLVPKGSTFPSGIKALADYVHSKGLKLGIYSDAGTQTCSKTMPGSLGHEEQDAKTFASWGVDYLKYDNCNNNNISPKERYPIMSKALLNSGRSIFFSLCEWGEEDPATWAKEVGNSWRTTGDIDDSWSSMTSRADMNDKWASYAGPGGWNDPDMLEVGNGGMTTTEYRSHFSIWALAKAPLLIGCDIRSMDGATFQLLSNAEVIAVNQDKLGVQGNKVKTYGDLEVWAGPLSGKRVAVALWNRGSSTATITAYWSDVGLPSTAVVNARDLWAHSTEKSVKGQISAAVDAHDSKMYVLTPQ
# Beta-glucuronidase, sequence (P05804 whole entry): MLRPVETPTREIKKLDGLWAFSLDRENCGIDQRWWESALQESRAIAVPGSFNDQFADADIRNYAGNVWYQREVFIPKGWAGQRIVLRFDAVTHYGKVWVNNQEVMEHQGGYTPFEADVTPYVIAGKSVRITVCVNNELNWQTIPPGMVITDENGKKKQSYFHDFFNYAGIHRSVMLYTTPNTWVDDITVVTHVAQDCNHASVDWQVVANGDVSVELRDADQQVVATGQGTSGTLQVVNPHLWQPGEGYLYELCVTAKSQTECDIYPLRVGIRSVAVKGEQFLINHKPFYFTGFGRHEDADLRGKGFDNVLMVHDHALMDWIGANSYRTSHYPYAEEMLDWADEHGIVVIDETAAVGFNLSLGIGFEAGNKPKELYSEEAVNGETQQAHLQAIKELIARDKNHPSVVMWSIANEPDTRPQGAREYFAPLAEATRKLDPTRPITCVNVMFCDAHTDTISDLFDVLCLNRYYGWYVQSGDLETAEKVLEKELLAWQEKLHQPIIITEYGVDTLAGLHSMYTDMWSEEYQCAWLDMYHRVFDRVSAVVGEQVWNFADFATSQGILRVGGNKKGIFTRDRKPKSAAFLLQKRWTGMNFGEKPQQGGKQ
# Beta-glucuronidase (Escherichia coli (strain K12)), sequence (P05804 whole entry, looked up): as the sequence (P05804 whole entry) above
# Alpha-galactosidase, sequence (Q42656 whole entry): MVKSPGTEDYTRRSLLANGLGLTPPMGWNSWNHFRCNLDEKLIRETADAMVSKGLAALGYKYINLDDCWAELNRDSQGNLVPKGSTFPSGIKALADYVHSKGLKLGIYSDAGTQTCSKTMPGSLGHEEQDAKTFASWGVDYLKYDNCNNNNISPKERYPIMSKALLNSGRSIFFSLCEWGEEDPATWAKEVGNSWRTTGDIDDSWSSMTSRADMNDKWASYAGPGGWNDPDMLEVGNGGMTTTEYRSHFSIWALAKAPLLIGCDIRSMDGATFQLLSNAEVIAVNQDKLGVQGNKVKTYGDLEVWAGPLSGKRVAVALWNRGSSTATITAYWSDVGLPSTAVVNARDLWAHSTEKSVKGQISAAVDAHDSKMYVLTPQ
SMILES,IC50 (Alpha-glucosidase) [µM],pIC50 [1],inhibition (Rattus norvegicus) [%],inhibition (Bos taurus [2]) [%],pIC50 (Beta-glucuronidase),pIC50 [3],inhibition (Oryza sativa) [%],pIC50 [4],pIC50 [5],inhibition (Sus scrofa) [%],inhibition (Penicillium decumbens) [%],inhibition [6] [%],pIC50 [7],pIC50 [8],inhibition [9] [%],pIC50 [10],pIC50 [11],inhibition [12] [%],inhibition (Aspergillus niger) [%],inhibition [13] [%],also measured
Cl.OC[C@H]1N[C@H]([C@H](O)CCCCCCc2ccc(F)c(F)c2)[C@@H](O)[C@@H]1O,87,8.15,42.5,4.3,4.68,6.28,43.4,4.80,4.96,1.4,27,17.2,8.40,5.57,16.6,,,,,,
O=C1CCCC=C1CCCCCCC[C@H]1N[C@H](CO)[C@@H](O)[C@@H]1O,21.6,6.92,,46.1,5.48,5.01,,3.55,4.52,0.8,35.1,19.6,7.52,,15.1,4.18,3.92,16.8,,,
CC(C)(C)c1ccc(CCCCCC[C@@H](O)[C@@H]2N[C@@H](CO)[C@H](O)[C@H]2O)cc1,,,,18.4,,,,,,0,4.6,1,4.12,5.20,0,4.66,4.68,0,8.7,11.4,inhibition (Prunus dulcis): 21.8%; inhibition (Bos taurus [14]): 40%; inhibition [15]: 23.5%; inhibition (Helix pomatia): 0.8%
OC[C@@H]1N[C@@H]([C@H](O)CCCCCCc2ccc(Cl)cc2)[C@H](O)[C@H]1O,,,,0,,,34,,,0,0,1.3,,3.96,0.8,4.55,,0,8.7,11.4,inhibition (Prunus dulcis): 9.6%; inhibition (Bos taurus [16]): 37.3%; inhibition (Bos taurus [14]): 21%; inhibition [15]: 4.8%; inhibition (Helix pomatia): 0.4%
OC[C@H]1N[C@H]([C@H](O)CCCCCCc2ccc(Cl)cc2)[C@@H](O)[C@@H]1O,,8.30,18.2,0,4.39,6.92,8.9,4.43,4.49,6,1.3,0,8.52,5.68,4.5,,,0.6,,42.3,
Cc1ccc(CCCCCC[C@@H](O)[C@H]2N[C@H](CO)[C@@H](O)[C@@H]2O)cc1,,8.52,10.5,0,4.89,7.09,15,4.49,4.64,0,7,0.9,8.70,5.96,5.9,,,0,,23.5,
OC[C@H]1N[C@H](CCCCCCCc2ccccc2)[C@@H](O)[C@@H]1O,33,6.92,,9.8,4.01,5.00,,3.43,4.44,10.7,43.9,5,7.68,,8.4,5.80,5.20,7.9,,,
CC(C)(C)c1ccc(CCCCCC[C@@H](O)[C@H]2N[C@H](CO)[C@@H](O)[C@@H]2O)cc1.Cl,57,8.40,48.7,4.3,5.54,7.19,36.6,4.85,4.80,2.3,4.8,5.5,8.70,6.09,8.7,,,,,,
OC[C@H]1N[C@H](CCCCCCCc2ccccc2)[C@@H](O)[C@H]1O,,4.19,43.3,12.7,4.12,3.33,,,,3.5,,,4.66,5.28,,,4.07,32.7,6,21.1,pIC50 [17]: 3.50; pIC50 (Alpha-galactosidase): 4.39; inhibition (Helix pomatia): 3.6%; pIC50 (Alpha-mannosidase): 3.56
Cl.OC[C@H]1N[C@H]([C@H](O)CCCCCCc2ccc(F)cc2)[C@@H](O)[C@@H]1O,83,8.05,24.2,7.1,4.44,6.82,10.2,4.70,4.52,0,4.1,8.6,8.30,5.48,13.9,,,,,,
